Earlier results as cited in patent publication US20180271827A1, “CANNABINOID COMPOSITIONS AND METHODS OF MAKING” (Pasenture, Inc., priority 2015, published 2018).
“Also recorded” adds a separate entry of the source. Like-named read-outs stand apart in the source and are kept apart here.

Settings: properties or predicted properties
[1] = Table A, representative terpenes
[2] = Table B, representative cannabinoids
[3] = Table C, flavonoid and phytosterol components derived from cannabis plants

Structure (SMILES)	Properties [1]	Properties [2]	other results
C=C(C)[C@H]1CC=C(C)CC1 [d-limonene]	Antidepressant, Antimutagenic	–	–
CCCc1cc(O)c2c(c1)OC(C)(C)[C@@H]1CCC(C)=C[C@@H]21 [tetrahydrocannabivarin (THCV), tetrahydrocannabivarin]	–	Analgesic, Euphoriant	–
CCCCCc1cc(O)c2c(c1)OC(C)(C)[C@@H]1CC=C(C)C[C@@H]21 [?-8-tetrahydrocannabinol (?-8-THC), ?-8-tetrahydrocannabinol]	–	Resembles ?-9-THC, Less psychoactive,; also recorded: More stable Antiemetic	–
CCCCCc1cc(O)c2c(c1)OC(C)(C)c1ccc(C)cc1-2 [Cannabinol (CBN), Cannabinol]	–	Oxidation, breakdown, product,; also recorded: Sedative, Antibiotic	–
CCCCCc1cc(O)c2c(c1)OC(C)(C)[C@@H]1CCC(C)=C[C@@H]21 [9-tetrahydrocannabinol (THC), 9-tetrahydrocannabinol, reference compound]	–	Euphoriant, Analgesic,; also recorded: Antiinflammatory, Antioxidant,; also recorded: Antiemetic	–
C=CC(=C)CCC=C(C)C [ß-myrcene]	Analgesic. Antiinflammatory, Antibiotic,; also recorded: Antimutagenic	–	–
C=C(C)[C@@H]1CCC(C)=C[C@H]1c1c(O)cc(CCCCC)cc1O [cannabidiol (CBD), cannabidiol, reference compound]	–	Antispasmodic; also recorded: Anxiolytic, Analgesic, Antipsychotic,; also recorded: Antiinflammatory, Antioxidant,	–
CC[C@H](CC[C@@H](C)[C@H]1CC[C@H]2[C@@H]3CC=C4C[C@@H](O)CC[C@]4(C)[C@H]3CC[C@]12C)C(C)C [ß-sitosterol]	–	–	Properties [3]: Antiinflammatory, 5-a-reductase, inhibitor
O=c1cc(-c2ccc(O)cc2)oc2cc(O)cc(O)c12 [apigenin]	–	–	Properties [3]: Anxiolytic, Antiinflammatory, Estrogenic
CC1=CC[C@@H](C(C)(C)O)CC1 [a-terpineol]	Sedative, Antibiotic, AChE inhibitor, Antioxidant,; also recorded: Antimalarial	–	–
CC1=CCC(O)(C(C)C)CC1 (stereo not drawn) [terpineol-4-ol]	AChE inhibitor, Antibiotic	–	–
CCCCCc1cc(O)c2c(c1)OC(C)(CCC=C(C)C)C=C2 (stereo not drawn) [cannabichromene (CBC), cannabichromene]	–	Antiinflammatory, Antibiotic,; also recorded: Antifungal	–
CCCCCc1cc(O)c(C/C=C(\C)CCC=C(C)C)c(O)c1 [cannabigerol (CBG), cannabigerol]	–	Antiinflammatory, Antibiotic,; also recorded: Antifungal	–
O=c1c(O)c(-c2ccc(O)c(O)c2)oc2cc(O)cc(O)c12 [quercetin]	–	–	Properties [3]: Antioxidant, Antimutagenic, Antiviral,; also recorded: Antineoplastic
C=C1CC/C=C(/C)CC[C@@H]2[C@@H]1CC2(C)C [ß-caryophyllene]	Antiinflammatory, Cytoprotective (gastric mucosa),; also recorded: Antimalarial	–	–
COc1cc(-c2cc(=O)c3c(O)c(C/C=C(\C)CCC=C(C)C)c(O)cc3o2)ccc1O [cannflavin A]	–	–	Properties [3]: COX inhibitor, LO inhibitor
CC(C)=C1CC[C@@H](C)CC1=O [pulegone]	Antipyretic	–	–
Cc1ccc(C(C)C)cc1 [p-cymene]	Antibiotic, Anticandidal, AChE inhibitor	–	–
CC1=CCC2CC1C2(C)C (stereo not drawn) [a-pinene]	Antiinflammatory, Bronchodilator, Stimulant,; also recorded: Antibiotic, Antineoplastic, AChE inhibitor	–	–
CC12CCC(CC1)C(C)(C)O2 [1,8-cineole (eucalyptol), 1,8-cineole]	AChE inhibitor, Increases cerebral, blood flow,; also recorded: Stimulant, Antibiotic, Antiviral, Antiinflammatory,; also recorded: Antinociceptive	–	–
C=CC(C)(O)CCC=C(C)C (stereo not drawn) [linalool]	Sedative, Antidepressant, Anxiolytic, Immune; also recorded: potentiator	–	–
